Laboratory results reported in a compilation of properties of binary mixtures (doi:10.1016/j.molliq.2012.11.030).

Test: xn = mol fraction of the nth substance listed
Settings: 298.15 K, 101 kPa

CC(=O)[O-].CC[NH3+] + O
Settings	electrical conductivity [S/m]
x1 = 0.003	0.782
x1 = 0.0103	1.89
x2 = 0	0.222
x2 = 0.2027	0.452
x2 = 0.3481	0.745
x2 = 0.7999	2.48
x2 = 0.8502	2.75
x2 = 0.9436	3.1
x2 = 0.9502	3.11
x2 = 0.96	3.08
x2 = 0.9685	2.9
x2 = 0.9799	2.65
